{"source": "patent US20020155997A1", "about": "(priority 2000, published 2002)", "origin": "cited, not measured here", "system": "bovine plasma", "conditions": "reference standard"}
{"substance": "dextran sulfate", "values": [{"measurement": "anticoagulant activity of the standard", "value": 25, "unit": "units/mg"}]}
